Tests used:
[1] = molecular target: T1, CCR2 (Homo sapiens, UniProt P41597); experiment: CCR2 receptor membrane binding assay (THP-1 membranes, 125I-MCP-1, SPA beads); settings: THP-1 cell membranes, 125I-MCP-1, 8 h; read-out: hKi [nM] (CCR2)
T1 construct: Membranes were prepared from THP-1 cells; endogenous in cells; host or cells: THP-1 (human acute monocytic leukaemia cells), membrane preparation
T1 sequence (P41597 1-360 isoform P41597-2): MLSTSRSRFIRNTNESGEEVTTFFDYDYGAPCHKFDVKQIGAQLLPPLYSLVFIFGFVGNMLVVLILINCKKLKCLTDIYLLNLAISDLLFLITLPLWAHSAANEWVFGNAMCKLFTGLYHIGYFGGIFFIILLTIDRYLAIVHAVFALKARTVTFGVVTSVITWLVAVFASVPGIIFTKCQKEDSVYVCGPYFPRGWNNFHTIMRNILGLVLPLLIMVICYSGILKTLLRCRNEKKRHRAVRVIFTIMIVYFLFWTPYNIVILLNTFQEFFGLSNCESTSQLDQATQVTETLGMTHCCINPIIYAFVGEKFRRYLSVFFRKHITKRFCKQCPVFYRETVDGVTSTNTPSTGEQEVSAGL
Description: The above exemplary substances have been tested for binding to CCR2 using a binding assay as outlined herein below:
THP-1 cells (human acute monocytic leukaemia cells) were cultured under standardized conditions at 37° C. and 5% CO2 in a humidified incubator. THP-1 cells were cultivated in RPMI 1640 medium (Gibco 21875) containing 1% MEM-NEAA (Gibso 11140) 2 mM L-glutamine, 1.5 g/L sodium bicarbonate, 4.5 g/L glucose, 10 mM HEPES and 1.0 mM sodium pyruvate, 90%; 10% fetal calf serum (FCS Gibco 10500-064).
Membranes were prepared from THP-1 cells. THP-1 cells were centrifuged at 300×g at 4° C. for 10 min. The cell pellet was resuspendet in Phosphate Buffer Saline (PBS, including 10 μM Pefabloc and a protease inhibitor mix ‘complete’, Boehringer Mannheim (1 tablet/50 ml)), to a concentration of […]. The membrane preparation was performed by disrupting the cells by nitrogen […] (at 50 bar, for 1 h) in a “Nitrogen Bombe” (Parr Instrument). Cell debris was removed by centrifugation (800×g at 4° C., 1 min). The supernatant was centrifuged at 80000×g, 4° C. for 30 min to sediment the cell membranes. Usually 50 mg of protein (Bradford assay) were yielded from 1×10E9 cells. The membranes were resuspendet in 25 mM HEPES, 25 mM MgCl2, 1 mM CaCl2, 10% Glycerine for storage in aliquots at −80° C. in 25 mM HEPES, 25 mM MgCl2, 1 mM CaCl2, 10% Glycerine and stored at −80° C.
Perkin Elmer NEX 332 Jod^125 MCP-1, Stock: 2200 Ci/mmol solved in 2000 μl assay buffer, stored at −20° C. THP-1 membrane were adjusted with 25 mM HEPES, pH 7.2; 5 mM MgCl2; 0.5 mM CaCl2; 0.2% BSA assay buffer to a concentration of 2.5 μg/15 μl. Amersham Biosciences PVT-WGA Beads (RPNQ0001) were adjusted with assay buffer to a concentration of 0.24 mg/30 μl. For preparation of the membrane-bead-suspension membranes and beads were incubated for 30 min at RT under rotation (60 rpm) with a ratio of 1:2. Test compounds dissolved in 100% DMSO to a concentration of 10 mM and are further diluted with 100% DMSO to 1 mM. All additional compound dilutions were obtained with assay buffer, final 1% DMSO. Compounds, membrane-bead-suspension and [^125]MCP-1 (ca. 25000 cpm/10 μl) were incubated. Bound radioactivity was determined by scintillation counter after 8 h. Determination of affinity of test compounds (dissociation constant hKi) is calculated by iterative fitting of experimental data using the “easy sys” program, which is based on law of mass action (Schittkowski K. (1994), Numerische Mathematik, Vol. 68, 129-142).

[2] = molecular target: T2, human CCR5 (Homo sapiens, UniProt P51681); experiment: CCR5 receptor membrane binding assay (CHO (Gα16) human CCR5 membranes, [125I]RANTES, SPA beads); settings: 6 h, read-out: hKi [nM] (CCR5)
T2 construct: expressed in transfected cells; host or cells: CHO cells co-expressing Gα16, grown under puromycin and zeocin selection; membrane preparation
Description: The above exemplary substances have been tested for binding to CCR5 using a binding assay as outlined herein below:
CHO, (Gα16) human CCR5 cells were cultured under standardized conditions at 37° C. and 5% CO2 in a humidified incubator. CHO (Gα16) human CCR5 cells were cultivated in Ham's F12 (Invitrogen; #31765068) supplemented with 10 µg/ml Puromycin (Invitrogen; #A11139-03), 200 µg/ml Zeocin (Invitrogen; #45-0003) and 10% FCS (Gibco; #10500-064).
Membranes were prepared from CHO (Gα16) human CCR5 cells. Cells were cultured on […] plates (Nunc; #166508) 2-3 days before membrane preparation (usually 80-100 plates to obtain 80 mg protein).
Cells were scraped off the plates with a big scraper and washed with 2×5 ml ice cold Phosphate Buffer Saline (PBS; Invitrogen; #14040-174). Cell suspension was collected in a glass bottle (on ice). Cell suspension was harvested at 1400 rpm and 4° C. for 10 min and washed in PBS. Cell pellet was resuspended in 40 ml PBS with protease inhibitor mix ‘complete’ (Roche; #11873580001; 1 tablet/50 ml).
For gentle cell disruption the membrane preparation was performed by using a homogenizer (potter). Cells were homogenized for 5-10 min.
Membranes were centrifuged at 1000 rpm and 4° C. for 5 min. Supernatant (=membrane) was harvested in a new falcon tube and remaining cell pellet homogenized again for 5-10 min with PBS with protease inhibitor mix and centrifuged. Collected supernatant was centrifuged at 40000 rpm and 4° C. for 30 min to sediment the cell membranes.
The membranes were resuspended in 25 mM HEPES, 25 mM MgCl2, 1 mM CaCl2, 10% Glycerine for storage in aliquots at −80° C. Membranes were diluted to a concentration of 5 mg/ml (Bradford Assay).
[^125I]RANTES, Stock: 1825 Ci/mmol, 25 μCi (Bio Trend #A3-AI-676) was solved in 1000 μl assay buffer (100 mM NaCl; 10 mM MgCl2; 50 mM Tris-HCl; 1 mM EDTA; 0.1% BSA, pH 7.6), stored at −20° C.
CHO (Gα16) human CCR5 membrane were solved on ice and adjusted with assay buffer to a concentration of 2.5 μg/15 μl.
Amersham Biosciences PVT-WGA Beads (GE Healthcare; #RPNQ0001) were adjusted with assay buffer to a concentration of 8 mg/ml. For preparation of the membrane-bead-suspension, membranes and beads were incubated for 30 min at RT under rotation with a ratio of 1:2.
Test compounds dissolved in 100% DMSO to a concentration of 10 mM and are further diluted with 100% DMSO to 1 mM. All additional compound dilutions were obtained with assay buffer, final 1% DMSO. 7 μl compound dilution, 45 μl membrane-bead-suspension and 10 μl [^125I]RANTES (ca. 20000 cpm/10 μl) were incubated at RT. Bound radioactivity was determined by scintillation counter after 6 h. Determination of affinity of test compounds (dissociation constant Ki) is calculated by iterative fitting of experimental data using the “easy sys” program, which is based on law of mass action (Schittkowski K. (1994), Numerische Mathematik, Vol. 68, 129-142).

T2 sequence (P51681 whole entry): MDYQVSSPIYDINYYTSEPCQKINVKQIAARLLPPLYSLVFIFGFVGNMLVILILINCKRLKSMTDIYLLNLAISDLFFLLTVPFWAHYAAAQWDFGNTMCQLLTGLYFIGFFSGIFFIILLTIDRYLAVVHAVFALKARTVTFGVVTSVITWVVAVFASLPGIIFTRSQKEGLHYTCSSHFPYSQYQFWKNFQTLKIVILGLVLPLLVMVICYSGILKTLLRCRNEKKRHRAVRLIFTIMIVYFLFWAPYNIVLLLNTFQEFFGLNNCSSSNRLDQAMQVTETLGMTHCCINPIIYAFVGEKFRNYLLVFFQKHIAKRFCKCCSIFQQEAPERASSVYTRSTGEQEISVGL

| Structure (SMILES) | Ki [1] | Ki [2] |
| --- | --- | --- |
| Cc1c(NC[C@H]2CCC[C@@H](c3ccc(OC(F)(F)F)cc3)O2)ncnc1C(=O)N1CCC(N2C[C@H]3C[C@@H](N(C)S(C)(=O)=O)C[C@H]3C2)CC1 [Example 8] | 0.1 nM | 9 nM |
| Cc1c(C(=O)N2CCC(N3CCO[C@H]4COCC[C@H]43)CC2)ncnc1N1CCc2ccc(C(F)(F)F)cc2C1 [Example 3] | 4 nM | 2090 nM |
| Cc1c(Nc2ccc(Cl)c(Cl)c2)ncnc1C(=O)N1CCC(N2CCO[C@H]3COCC[C@H]32)CC1 [Example 24] | 2 nM | 670 nM |
| Cc1ccc2c(c1)CN(c1nc(C)nc(C(=O)N3CCC(N4CCO[C@H]5COCC[C@H]54)CC3)c1C)CC2 [Example 31] | 67 nM | 7010 nM |
| Cc1ccc([C@@H]2CCC[C@H](CNc3ncnc(C(=O)N4CCC(N5C[C@H]6C[C@@H](N(C)S(C)(=O)=O)C[C@H]6C5)CC4)c3C)O2)cc1 [Example 6] | 0.3 nM | 38 nM |
| Cc1c(Nc2ccc(Cl)c(Cl)c2)ncnc1C(=O)N1CCC(N2CCO[C@H]3COCC[C@H]32)CC1 [Example 4] | 4 nM | 540 nM |
| Cc1c(Nc2ccc(Cl)c(Cl)c2)ncnc1C(=O)N1CCC(N2CC3CN(S(C)(=O)=O)CC3C2)CC1 (stereo not shown) [Example 15] | 3 nM | 400 nM |
| COc1nc(NCc2ccc(C(C)(C)C)cc2)c(C)c(C(=O)N2CCC(N3CC4COCC4C3)CC2)n1 (stereo not shown) [Example 19] | 58 nM | 4030 nM |
| Cc1c(Nc2cccc(C(F)(F)F)c2)nc(C2CC2)nc1C(=O)N1CCC(N2CCO[C@H]3COCC[C@H]32)CC1 [Example 29] | 1 nM | 960 nM |
| Cc1c(C(=O)N2CCC(N3CC4CN(S(C)(=O)=O)CC4C3)CC2)ncnc1N1CCc2ccc(C(F)(F)F)cc2C1 (stereo not shown) [Example 13] | 7 nM | 2270 nM |
| COc1nc(Nc2cccc(C(F)(F)F)c2)c(C)c(C(=O)N2CCC(N3CCO[C@H]4COCC[C@H]43)CC2)n1 [Example 27] | 3 nM | 1000 nM |
| Cc1ccc([C@@H]2CCC[C@H](CNc3ncnc(C(=O)N4CCC(N5CCOC6COCCC65)CC4)c3C)O2)cc1 (stereo partly shown) [Example 22] | 15 nM | 1170 nM |
| Cc1c(NC[C@H]2CCC[C@@H](c3ccc(C(F)(F)F)cc3)O2)ncnc1C(=O)N1CCC(N2CCOC3COCCC32)CC1 (stereo partly shown) [Example 21] | 3 nM | 200 nM |
| Cc1c(NC[C@H]2CCC[C@@H](c3ccc(C(F)(F)F)cc3)O2)ncnc1C(=O)N1CCC(N2CCO[C@@H]3COCC[C@@H]32)CC1 [Example 1] | 15 nM | 1770 nM |
| Cc1c(NC[C@H]2CCC[C@@H](c3ccc(C(F)(F)F)cc3)O2)ncnc1C(=O)N1CCC(N2CC3CN(S(C)(=O)=O)CC3C2)CC1 (stereo partly shown) [Example 12] | 1 nM | 220 nM |

More lines, now with the values ahead:

| Ki [1] | Ki [2] | Structure (SMILES) |
| --- | --- | --- |
| 6 nM | 1000 nM | COc1nc(Nc2ccc(Cl)c(Cl)c2)c(C)c(C(=O)N2CCC(N3CCO[C@@H]4COCC[C@@H]43)CC2)n1 (single isomer, unassigned) [Example 37b] |
| 11 nM | 1820 nM | Cc1c(NCc2ccc(C(C)(C)C)cc2)ncnc1C(=O)N1CCC(N2CC3CN(S(C)(=O)=O)CC3C2)CC1 (stereo not shown) [Example 42] |
| 80 nM | 5310 nM | Cc1c(C(=O)N2CCC(N3CC4COCC4C3)CC2)ncnc1N1CCc2ccc(C(F)(F)F)cc2C1 (stereo not shown) [Example 32] |
| 1 nM | 460 nM | Cc1c(Nc2cccc(C(F)(F)F)c2)nc(C2CC2)nc1C(=O)N1CCC(N2CCO[C@H]3COCC[C@H]32)CC1 (single isomer, unassigned) [Example 39a] |
| 1 nM | 43 nM | Cc1c(NC[C@H]2CCC[C@@H](c3ccccc3)C2)ncnc1C(=O)N1CCC(N2CC3CN(S(C)(=O)=O)CC3C2)CC1 (stereo partly shown) [Example 43] |
| 36 nM | 4110 nM | Cc1c(NCc2ccc(C(C)(C)C)cc2)ncnc1C(=O)N1CCC(N2CC3COCC3C2)CC1 (stereo not shown) [Example 45] |
| 1 nM | 300 nM | COc1nc(Nc2ccc(Cl)c(Cl)c2)c(C)c(C(=O)N2CCC(N3CCO[C@H]4COCC[C@H]43)CC2)n1 (single isomer, unassigned) [Example 37a] |
| 9 nM | 640 nM | Cc1nc(Nc2cccc(C(F)(F)F)c2)c(C)c(C(=O)N2CCC(N3CCO[C@H]4COCC[C@H]43)CC2)n1 (single isomer, unassigned) [Example 40b] |
